This note sets out measurements from patent publication US10973832B2, “Muscarinic M1 receptor agonists” (Heptares Therapeutics Limited, priority 2011, dated 2021).

As a reminder, the Emax is the greatest response seen or fitted, relative to the assay's reference.

SMILES strings stand for the structures.

Common to all, as to assay type: cell-based
Experiment [1] concerns the target T1, human muscarinic M3 receptor (Homo sapiens, UniProt P20309).
T1 construct: expressed in transfected cells
Kind of experiment: Phospho-ERK1/2 assay, muscarinic M3. The settings on record: for EC50: phospho-ERK1/2 Alphascreen, read-out: pEC50 M3 (converted); for Emax: CHO, read-out: % Emax cf. ACh (M3). The protocol: (§1) Functional assays were performed using the Alphascreen Surefire phospho-ERK1/2 assay (Crouch & Osmond, Comb. Chem. High Throughput Screen, 2008). ERK1/2 phosphorylation is a downstream consequence of both Gq/11 and Gi/o protein coupled receptor activation, making it highly suitable for the assessment of M1, M3 (Gq/11 coupled) and M2, M4 receptors (Gi/o coupled), rather than using different assay formats for different receptor subtypes. CHO cells stably expressing the human muscarinic M1, M2, M3 or M4 receptor were plated (25K/well) onto 96-well tissue culture plates in MEM-alpha+10% dialysed FBS. Once adhered, cells were serum-starved overnight. Agonist stimulation was performed by the addition of 5 μL agonist to the cells for 5 min (37° C.). Media was removed and 50 μL of lysis buffer added. After 15 min, a 4 μL sample was transferred to 384-well plate and 7 μL of detection mixture added. Plates were incubated for 2 h with gentle agitation in the dark and then read on a PHERAstar plate reader.
(§2) pEC50 and Emax figures were calculated from the resulting data for each receptor subtype.

The target of experiment [2] is T2, human muscarinic M2 receptor (Homo sapiens, UniProt P08172).
T2 sequence (P08172 1-466): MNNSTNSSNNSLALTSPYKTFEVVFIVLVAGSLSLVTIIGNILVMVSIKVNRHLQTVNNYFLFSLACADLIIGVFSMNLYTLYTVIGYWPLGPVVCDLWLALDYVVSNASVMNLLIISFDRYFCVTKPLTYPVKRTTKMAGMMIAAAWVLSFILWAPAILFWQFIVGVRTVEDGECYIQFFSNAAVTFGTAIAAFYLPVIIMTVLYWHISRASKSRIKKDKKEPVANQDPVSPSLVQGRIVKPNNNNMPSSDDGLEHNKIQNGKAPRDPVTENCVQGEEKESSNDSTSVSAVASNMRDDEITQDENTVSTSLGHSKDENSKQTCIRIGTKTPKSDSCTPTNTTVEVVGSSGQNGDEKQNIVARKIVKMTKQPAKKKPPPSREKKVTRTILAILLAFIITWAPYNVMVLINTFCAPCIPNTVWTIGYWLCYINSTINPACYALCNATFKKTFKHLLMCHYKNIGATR
Kind of experiment: Phospho-ERK1/2 assay, muscarinic M2. The settings on record: for EC50: CHO cells expressing human M2, phospho-ERK1/2 Alphascreen, read-out: pEC50 M2 (converted); for Emax: CHO, read-out: % Emax cf. ACh (M2). As to the method:
as §1, §2
For orientation: Bead proximity is the source of the signal in Alpha formats.

The target of experiment [3] is T3, human muscarinic M4 receptor (Homo sapiens, UniProt P08173).
T3 construct: expressed in transfected cells
T3 sequence (P08173 1-479): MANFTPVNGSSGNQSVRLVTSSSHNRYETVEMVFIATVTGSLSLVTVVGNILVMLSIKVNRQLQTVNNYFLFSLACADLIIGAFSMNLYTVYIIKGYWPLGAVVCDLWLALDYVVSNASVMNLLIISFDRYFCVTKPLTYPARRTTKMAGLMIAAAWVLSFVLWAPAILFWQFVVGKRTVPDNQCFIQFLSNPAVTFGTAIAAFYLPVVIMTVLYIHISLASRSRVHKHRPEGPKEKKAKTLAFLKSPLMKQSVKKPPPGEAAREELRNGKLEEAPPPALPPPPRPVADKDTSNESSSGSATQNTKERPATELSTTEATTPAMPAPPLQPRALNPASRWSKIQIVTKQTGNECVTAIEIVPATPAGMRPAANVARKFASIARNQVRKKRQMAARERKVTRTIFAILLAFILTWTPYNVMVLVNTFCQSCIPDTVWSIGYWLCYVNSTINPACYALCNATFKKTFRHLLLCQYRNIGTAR
The experiment in a line: Phospho-ERK1/2 assay, muscarinic M4. The note with it: for EC50: phospho-ERK1/2 Alphascreen, read-out: pEC50 M4 (converted); for Emax: CHO, read-out: % Emax cf. ACh (M4). As to the method: as §1, §2

In experiment [4] the target is T4, human muscarinic M1 receptor (Homo sapiens, UniProt P11229).
T4 sequence (P11229 1-460): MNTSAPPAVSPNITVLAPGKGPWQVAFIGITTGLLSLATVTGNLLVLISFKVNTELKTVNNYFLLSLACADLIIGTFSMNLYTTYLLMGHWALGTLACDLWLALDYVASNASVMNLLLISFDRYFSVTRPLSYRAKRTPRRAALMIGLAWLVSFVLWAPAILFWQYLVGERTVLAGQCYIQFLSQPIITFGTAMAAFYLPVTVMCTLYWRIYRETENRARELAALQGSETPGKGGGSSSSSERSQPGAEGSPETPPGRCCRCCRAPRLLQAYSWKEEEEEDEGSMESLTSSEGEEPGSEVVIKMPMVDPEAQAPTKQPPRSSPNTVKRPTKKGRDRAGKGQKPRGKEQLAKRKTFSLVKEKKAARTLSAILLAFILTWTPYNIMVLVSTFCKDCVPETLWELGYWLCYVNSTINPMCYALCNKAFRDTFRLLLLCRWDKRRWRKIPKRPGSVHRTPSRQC
The experiment in a line: Phospho-ERK1/2 assay, muscarinic M1. The note with it: for EC50: CHO cells expressing human M1, phospho-ERK1/2 Alphascreen, read-out: pEC50 M1 (converted); for Emax: CHO, read-out: % Emax cf. ACh (M1). As to the method:
as §1, §2

T1 sequence (P20309 whole entry): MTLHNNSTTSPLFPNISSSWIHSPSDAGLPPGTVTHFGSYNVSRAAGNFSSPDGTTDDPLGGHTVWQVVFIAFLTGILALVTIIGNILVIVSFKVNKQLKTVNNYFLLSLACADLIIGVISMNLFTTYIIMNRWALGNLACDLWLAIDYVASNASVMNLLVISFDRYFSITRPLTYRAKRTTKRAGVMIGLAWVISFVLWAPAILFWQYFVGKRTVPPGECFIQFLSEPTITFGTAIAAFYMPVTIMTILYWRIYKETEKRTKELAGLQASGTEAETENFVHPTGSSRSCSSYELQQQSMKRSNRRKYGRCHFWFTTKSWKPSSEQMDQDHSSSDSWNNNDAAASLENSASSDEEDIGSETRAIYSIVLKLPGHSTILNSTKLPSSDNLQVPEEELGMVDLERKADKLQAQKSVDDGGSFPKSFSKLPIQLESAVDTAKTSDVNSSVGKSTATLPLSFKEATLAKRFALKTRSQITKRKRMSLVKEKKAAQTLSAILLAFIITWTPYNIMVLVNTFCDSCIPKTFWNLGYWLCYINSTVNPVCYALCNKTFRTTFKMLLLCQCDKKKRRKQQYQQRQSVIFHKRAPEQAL

With `CCOC(=O)N1CCCC(N2CCC(F)(C(=O)NC3(C)CCCC3)CC2)CC1` (stereo not drawn) [Example 48, ethyl 4-(4-fluoro-4-((1-methylcyclopentyl)carbamoyl)piperidin-1-yl)azepane-1-carboxylate], the EC50 is above 20 µM in experiment [1] (CHO cells expressing human M3), above 20 µM in experiment [2], 0.537 µM in experiment [3] (CHO cells expressing human M4) and 0.0617 µM in experiment [4]. For the same molecule, the Emax in experiment [1] was found to be 12%; in experiment [2] it was 12%; in experiment [3] it was 73%; in experiment [4], 88%.
As to `CCOC(=O)N1CCCC(N2CCC(C(=O)NCC(C)(C)C)CC2)CC1` (stereo not drawn) [Example 9, ethyl 4-(4-((2,2-dimethylpropyl)carbamoyl)piperidin-1-yl)azepane-1-carboxylate], the EC50 in experiment [1] (CHO cells expressing human M3) is 13.2 µM; in experiment [2] it was above 20 µM; in experiment [3] (CHO cells expressing human M4), 0.794 µM; in experiment [4] it was 0.117 µM. Further, the Emax in experiment [1] was 23%; in experiment [2], 6%; in experiment [3] it was 41%; in experiment [4] it was 125%.
As for `CCOC(=O)N1CCCC(N2CCC(F)(C(=O)NC3CCCC3)CC2)CC1` (stereo not drawn) [Example 51, ethyl 4-(4-fluoro-4-((cyclopentyl)carbamoyl)piperidin-1-yl)azepane-1-carboxylate], the EC50 is above 20 µM in experiment [1] (CHO cells expressing human M3), above 20 µM in experiment [2], 0.708 µM in experiment [3] (CHO cells expressing human M4) and 0.0513 µM in experiment [4]. Moreover, the Emax came out at 6% in experiment [1], 12% in experiment [2], 93% in experiment [3] and 107% in experiment [4].
As to `CCOC(=O)N1CCCC(N2CCC(C(=O)NC3(CC)CCC3)CC2)CC1` (stereo not drawn) [Example 74], the EC50 is above 20 µM in experiment [1] (CHO cells expressing human M3), above 20 µM in experiment [2], 0.282 µM in experiment [3] (CHO cells expressing human M4) and 0.0525 µM in experiment [4]. In addition, the Emax in experiment [1] stood at 4%; in experiment [2], 19%; in experiment [3], 97%; in experiment [4], 132%.
As for `CCOC(=O)N1CCCC(N2CCC(C(=O)NCC3(CC)CCC3)CC2)CC1` (stereo not drawn) [Example 37, ethyl 4-(4-(((1-ethylcyclobutyl)methyl)carbamoyl)piperidin-1-yl)azepane-1-carboxylate], the EC50 in experiment [1] (CHO cells expressing human M3) was above 20 µM; in experiment [2], above 20 µM; in experiment [3] (CHO cells expressing human M4), 0.191 µM; in experiment [4], 0.0138 µM. Moreover, the maximal response (Emax) in experiment [1] came to 10%; in experiment [2], 8%; in experiment [3], 75%; in experiment [4], 87%.
In the case of `CCOC(=O)N1CCCC(N2CCC(C(=O)NC3(C(F)(F)F)CCC3)CC2)CC1` (stereo not drawn) [Example 70], the EC50 in experiment [1] (CHO cells expressing human M3) is above 20 µM; in experiment [2], above 20 µM; in experiment [3] (CHO cells expressing human M4), 0.794 µM; in experiment [4], 0.269 µM. The Emax came out at 3% in experiment [1], 5% in experiment [2], 55% in experiment [3] and 107% in experiment [4].
Turning to `CCOC(=O)N1CCCC(N2CCC(C(=O)NC3(C)CCCCC3)CC2)CC1` (stereo not drawn) [Example 17, ethyl 4-(4-((1-methylcyclohexyl)carbamoyl)piperidin-1-yl)azepane-1-carboxylate], the EC50 in experiment [1] (CHO cells expressing human M3) was above 20 µM; in experiment [2], above 20 µM; in experiment [3] (CHO cells expressing human M4), 0.724 µM; in experiment [4] it was 0.0617 µM. In addition, the Emax was 5% in experiment [1], 0% in experiment [2], 46% in experiment [3] and 104% in experiment [4].
Turning to `CCOC(=O)N1CCCC(N2CCC(C(=O)NCC3(C)CCC3)CC2)CC1` (stereo not drawn) [Example 69, ethyl 4-(4-{[(1-methylcyclobutyl)methyl]carbamoyl}piperidin-1-yl)azepane-1-carboxylate], the EC50 in experiment [1] (CHO cells expressing human M3) is above 20 µM; in experiment [2], above 20 µM; in experiment [3] (CHO cells expressing human M4) it was 0.24 µM; in experiment [4] it was 0.0105 µM. Moreover, the Emax in experiment [1] was 14%; in experiment [2], 12%; in experiment [3] it was 78%; in experiment [4], 120%.
As for `CC(=O)OCC[N+](C)(C)C` [ACh], the “% Emax cf. ACh (M3)” value in experiment [1] (CHO cells expressing human M3, Emax relative to ACh) was “(112) %”. Further, in experiment [3] (CHO cells expressing human M4, Emax relative to ACh), the “% Emax cf. ACh (M4)” value is listed as “(110) %”.
For `CCOC(=O)N1CCC[C@@H](N2CCC(C(=O)NC(C)(C)C)CC2)CC1` [Example 68, ethyl (4R)-4-[4-(tert-butylcarbamoyl)piperidin-1-yl]azepane-1-carboxylate], the EC50 was 3.72 µM in experiment [3] (CHO cells expressing human M4) and 0.813 µM in experiment [4]. Moreover, the Emax in experiment [3] is 64%; in experiment [4] it was 94%.
As for `CCOC(=O)N1CCC[C@H](N2CCC(C(=O)NC(C)(C)C)CC2)CC1` [Example 67, ethyl (4S)-4-[4-(tert-butylcarbamoyl)piperidin-1-yl]azepane-1-carboxylate], the EC50 in experiment [1] (CHO cells expressing human M3) is above 20 µM; in experiment [2], above 20 µM; in experiment [3] (CHO cells expressing human M4), 0.501 µM; in experiment [4], 0.126 µM. The Emax in experiment [1] was 4%; in experiment [2], 48%; in experiment [3] it was 104%; in experiment [4], 114%.
For the molecule `CCOC(=O)N1CCC(N2CCC(C(=O)NC(C)(C)C(C)C)CC2)CC1` [Example 3], the EC50 in experiment [1] (CHO cells expressing human M3) was above 20 µM; in experiment [2], above 20 µM; in experiment [3] (CHO cells expressing human M4), 0.562 µM; in experiment [4] it was 0.2 µM. Moreover, the Emax in experiment [1] came out at 4%; in experiment [2], 6%; in experiment [3], 85%; in experiment [4], 116%.
As to `[2H]C([2H])([2H])C([2H])(C([2H])([2H])[2H])C([2H])([2H])NC(=O)C1CCN(C2CCCN(C(=O)OCC)CC2)CC1` (stereo not drawn) [Example 75, ethyl 4-(4-{[2-(^2H3)methyl(^2H6)propyl]carbamoyl}piperidin-1-yl)azepane-1-carboxylate], the EC50 in experiment [1] (CHO cells expressing human M3) is above 20 µM; in experiment [2], above 20 µM; in experiment [3] (CHO cells expressing human M4) it was 0.794 µM; in experiment [4], 0.0871 µM. Further, the Emax stood at 13% in experiment [1], 14% in experiment [2], 87% in experiment [3] and 102% in experiment [4].
For the molecule `CCOC(=O)N1CCCC(N2CCC(C(=O)NCC3CC3)CC2)CC1` (stereo not drawn) [Example 15, ethyl 4-(4-((cyclopropylmethyl)carbamoyl)piperidin-1-yl)azepane-1-carboxylate], the EC50 in experiment [1] (CHO cells expressing human M3) was above 20 µM; in experiment [2], above 20 µM; in experiment [3] (CHO cells expressing human M4), 0.55 µM; in experiment [4], 0.112 µM. Moreover, the Emax worked out at 12% in experiment [1], 5% in experiment [2], 67% in experiment [3] and 107% in experiment [4].
